{"source": "ChEMBL document CHEMBL6071160", "about": "“Identification of a novel 10-hydroxyevodiamine prodrug as a potent topoisomerase inhibitor with improved aqueous solubility for treatment of hepatocellular carcinoma” (Eur J Med Chem, 2024)", "key": {"[1]": {"test": "Chemical stability of compound at pH 5.5 assessed as residual rate measured after 2 days", "type": "physicochemical", "conditions": "buffer, time 2 day, read-out: Stability"}, "[2]": {"test": "MRT (0 to t) in Sprague-Dawley rat at 10 mg/kg, ip measured upto 24 hrs by LC-MS/MS analysis", "type": "ADME, organism-based", "conditions": "in vivo"}, "[3]": {"test": "Toxicity in BALB/c nude mouse subcutaneously injected with human Huh-7 cells assessed as animal death at 40 mg/kg, ip administered once daily measured after 14 days", "type": "organism-based", "conditions": "in vivo, 336 h, time 14 day"}, "SK-HEP1 [4]": {"test_system": "SK-HEP1", "test": "Inhibition of cell invasion in human SK-HEP1 cells assessed as decrease in number of cells migration into lower compartment at 40 nM measured after 24 hrs by transwell assay", "type": "functional, cell-based"}, "Huh-7 [5]": {"test_system": "Huh-7", "test": "Induction of cell cycle arrest in human Huh-7 cells assessed as accumulation of cells at G2 phase 80 nM measured after 24 hrs by flow cytometric assay (reference value: 13.66%)", "type": "functional"}, "Huh-7 [6]": {"test_system": "Huh-7", "test": "Induction of cell cycle arrest in human Huh-7 cells assessed as accumulation of cells at S phase 20 nM measured after 24 hrs by flow cytometric assay (reference value: 23.33%)", "type": "functional"}, "Huh-7 [7]": {"test_system": "Huh-7", "test": "Inhibition of cell invasion in human Huh-7 cells assessed as decrease in number of cells migration into lower compartment at 40 nM measured after 24 hrs by transwell assay", "type": "functional, cell-based"}, "SK-HEP1 [8]": {"test_system": "SK-HEP1", "test": "Induction of apoptosis in human SK-HEP1 cells assessed as ROS generation by measuring DCFH2-DA stained cells at 80 nM measured after 24 hrs […] (reference value: 0.14%)", "type": "functional"}, "SK-HEP1 [9]": {"test_system": "SK-HEP1", "test": "Induction of cell cycle arrest in human SK-HEP1 cells assessed as accumulation of cells at G2 phase 80 nM measured after 24 hrs by flow cytometric assay (reference value: 22.41%)", "type": "functional"}, "SK-HEP1 [10]": {"test_system": "SK-HEP1", "test": "Induction of apoptosis in human SK-HEP1 assessed as loss of mitochondrial membrane potential by measuring JC-1 stained cells at 40 nM measured after 24 hrs by JC-1 staining based flow cytometry (reference value: 0.49%)", "type": "functional"}, "[11]": {"target": "DNA topoisomerase II (Homo sapiens) (UniProt P11388+Q02880)", "test": "Inhibition of DNA topoisomerase 2 (unknown origin) assessed as relaxation of supercoiled plasmid pBR322 DNA at 25 to 100 uM incubated for 15 mins measured after 30 mins addition of ethidium bromide by agarose gel electrophoresis", "type": "protein assay", "conditions": "dose 25-100 µM"}, "Huh-7 [12]": {"test_system": "Huh-7", "test": "Induction of apoptosis in human Huh-7 cells assessed as early apoptotic cells at 20 nM measured after 24 hrs by Annexin-V-FITC/PI analysis (reference value: 1.04%)", "type": "functional"}, "SK-HEP1 [13]": {"test_system": "SK-HEP1", "test": "Induction of apoptosis in human SK-HEP1 cells assessed as viable cells at 20 nM measured after 24 hrs by Annexin-V-FITC/PI analysis (reference value: 97.20%)", "type": "functional", "conditions": "read-out: Activity"}, "SK-HEP1 [14]": {"test_system": "SK-HEP1", "test": "Induction of cell cycle arrest in human SK-HEP1 cells assessed as accumulation of cells at G1 phase 40 nM measured after 24 hrs by flow cytometric assay (reference value: 47.55%)", "type": "functional"}, "[15]": {"target": "T1, DNA topoisomerase 1 (Homo sapiens) (UniProt P11387)", "T1 sequence (whole entry)": "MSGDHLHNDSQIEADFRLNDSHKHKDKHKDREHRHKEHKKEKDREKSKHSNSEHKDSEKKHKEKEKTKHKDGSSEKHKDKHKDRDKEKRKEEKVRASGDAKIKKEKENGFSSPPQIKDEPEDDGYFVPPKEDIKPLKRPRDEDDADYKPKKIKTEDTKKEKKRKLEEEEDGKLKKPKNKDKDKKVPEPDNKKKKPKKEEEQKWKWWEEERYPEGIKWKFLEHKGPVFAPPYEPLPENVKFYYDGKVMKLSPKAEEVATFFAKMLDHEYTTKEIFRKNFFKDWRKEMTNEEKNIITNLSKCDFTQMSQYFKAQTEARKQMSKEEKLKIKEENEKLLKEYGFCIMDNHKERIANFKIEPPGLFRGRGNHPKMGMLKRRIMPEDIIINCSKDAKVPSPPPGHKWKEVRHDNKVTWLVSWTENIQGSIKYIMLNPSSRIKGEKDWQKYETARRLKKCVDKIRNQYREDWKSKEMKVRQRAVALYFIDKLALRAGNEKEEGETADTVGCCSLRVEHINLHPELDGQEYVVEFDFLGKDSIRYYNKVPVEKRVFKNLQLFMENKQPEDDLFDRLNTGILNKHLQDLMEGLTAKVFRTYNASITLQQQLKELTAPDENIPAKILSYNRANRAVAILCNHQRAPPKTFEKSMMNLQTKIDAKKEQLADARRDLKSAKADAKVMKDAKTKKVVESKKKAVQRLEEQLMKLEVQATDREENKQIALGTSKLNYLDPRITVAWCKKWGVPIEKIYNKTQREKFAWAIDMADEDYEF", "test": "Inhibition of DNA topoisomerase 1 (unknown origin) assessed as relaxation of supercoiled plasmid pBR322 DNA at 25 to 100 uM incubated for 15 mins measured after 30 mins addition of ethidium bromide by agarose gel electrophoresis", "conditions": "dose 25-100 µM, time 45.0 min"}, "SK-HEP1 [16]": {"test_system": "SK-HEP1", "test": "Induction of apoptosis in human SK-HEP1 cells assessed as late apoptotic cells at 80 nM measured after 24 hrs by Annexin-V-FITC/PI analysis (reference value: 0.64%)", "type": "functional"}, "[17]": {"test": "Toxicity in BALB/c nude mouse subcutaneously injected with human Huh-7 cells assessed as change in red blood cells at 10 mg/kg, ip administered once daily measured after 14 days", "type": "organism-based", "conditions": "in vivo, 336 h, time 14 day"}, "SK-HEP1 [18]": {"test_system": "SK-HEP1", "test": "Induction of cell cycle arrest in human SK-HEP1 cells assessed as accumulation of cells at S phase 80 nM measured after 24 hrs by flow cytometric assay (reference value: 30.04%)", "type": "functional"}, "[19]": {"test": "Antiproliferative activity against human Doxorubicin-resistant SMMC-7721 cell assessed as inhibition of cell proliferation incubated for 72 hrs by MTT assay", "type": "functional, cell-based", "conditions": "SMMC-7721, 72 h"}, "SK-HEP1 [20]": {"test_system": "SK-HEP1", "test": "Induction of cell cycle arrest in human SK-HEP1 cells assessed as accumulation of cells at G2 phase 40 nM measured after 24 hrs by flow cytometric assay (reference value: 22.41%)", "type": "functional"}, "Huh-7 [21]": {"test_system": "Huh-7", "test": "Induction of apoptosis in human Huh-7 cells assessed as necrotic cells at 40 nM measured after 24 hrs by Annexin-V-FITC/PI analysis (reference value: 0.27%)", "type": "functional"}, "Huh-7 [22]": {"test_system": "Huh-7", "test": "Induction of apoptosis in human Huh-7 cells assessed as necrotic cells at 80 nM measured after 24 hrs by Annexin-V-FITC/PI analysis (reference value: 0.27%)", "type": "functional"}, "SK-HEP1 [23]": {"test_system": "SK-HEP1", "test": "Induction of apoptosis in human SK-HEP1 cells assessed as ROS generation by measuring DCFH2-DA stained cells at 20 nM measured after 24 hrs […] (reference value: 0.14%)", "type": "functional"}, "[24]": {"test": "Toxicity in BALB/c nude mouse subcutaneously injected with human Huh-7 cells assessed as changes in kidney tissue at 10 mg/kg, ip administered once daily measured after 14 days by H and E staining based assay", "type": "organism-based", "conditions": "in vivo, 336 h, time 14 day"}, "[25]": {"test": "Toxicity in BALB/c nude mouse subcutaneously injected with human Huh-7 cells assessed as changes in lung tissue at 10 mg/kg, ip administered once daily measured after 14 days by H and E staining based assay", "type": "organism-based", "conditions": "in vivo, 336 h, time 14 day"}}, "note": "Activity calls are given as the source filed them. The rule behind the calls is not given here."}
{"smiles": "C[N+](C)(C)CCC(=O)Oc1ccc2[nH]c3c(c2c1)CCN1C(=O)c2cc(F)cc(F)c2N(c2cccc(F)c2)C31.[I-]", "note": "(stereo not given)", "values": [{"measurement": "remaining at 48 h", "setting": "[1]", "value": 55.8, "unit": "%"}, {"measurement": "MRT last at 24 h", "setting": "[2]", "value": 4.64, "unit": "h"}, {"measurement": "Activity", "setting": "[3]", "value": "Toxic"}, {"measurement": "inhibition", "setting": "SK-HEP1 [4]", "value": "Active"}, {"measurement": "Activity", "setting": "Huh-7 [5]", "value": 86.5, "unit": "%"}, {"measurement": "Activity", "setting": "Huh-7 [6]", "value": 27.35, "unit": "%"}, {"measurement": "inhibition", "setting": "Huh-7 [7]", "value": "Active"}, {"measurement": "Activity", "setting": "SK-HEP1 [8]", "value": 56.75, "unit": "%"}, {"measurement": "Activity", "setting": "SK-HEP1 [9]", "value": 68.55, "unit": "%"}, {"measurement": "Activity", "setting": "SK-HEP1 [10]", "value": 1.49, "unit": "%"}, {"measurement": "inhibition", "setting": "[11]", "value": "Active"}, {"measurement": "Activity", "setting": "Huh-7 [12]", "value": 1.31, "unit": "%"}, {"measurement": "viability at 0.02 µM", "setting": "SK-HEP1 [13]", "value": 97.2, "unit": "%"}, {"measurement": "Activity", "setting": "SK-HEP1 [14]", "value": 43.86, "unit": "%"}, {"measurement": "inhibition", "setting": "[15]", "value": "Active"}, {"measurement": "Activity", "setting": "SK-HEP1 [16]", "value": 11.59, "unit": "%"}, {"measurement": "Activity", "setting": "[17]", "value": "Non-Toxic"}, {"measurement": "Activity", "setting": "SK-HEP1 [18]", "value": 18.41, "unit": "%"}, {"measurement": "IC50", "setting": "[19]", "value": 110, "unit": "nM"}, {"measurement": "Activity", "setting": "SK-HEP1 [20]", "value": 24.99, "unit": "%"}, {"measurement": "Activity", "setting": "Huh-7 [21]", "value": 0.04, "unit": "%"}, {"measurement": "Activity", "setting": "Huh-7 [22]", "value": 0.83, "unit": "%"}, {"measurement": "Activity", "setting": "SK-HEP1 [23]", "value": 0.47, "unit": "%"}, {"measurement": "Activity", "setting": "[24]", "value": "Non-Toxic"}, {"measurement": "Activity", "setting": "[25]", "value": "Non-Toxic"}]}
